Laboratory results taken from patent publication US12274703B2, “Compositions and methods of treatment for neurological disorders comprising a dementia” (Gliapharm SA, priority 2017, dated 2025).

Key:
[1] = test system: astrocytes; assay: Extracellular lactate quantification; type: cell-based, mouse; conditions: Mus musculus, Astrocyte; Appendix II; lactate secretion; read-out: EC50
Method: (§1) Primary cultures of cerebrocortical astrocytes were obtained from 1-2-day-old OF1 mouse pups (Charles River Laboratories). Briefly, cortices were isolated and minced in small pieces under a dissecting microscope. The cells were incubated for 30 min at 37° C. in a solution containing 20 U/ml of papain enzyme (Worthington Biochemical), L-cysteine 1 mM (Sigma), and 10 kU/ml DNase I (Worthington Biochemical) for an enzymatic dissociation. Papain activity was stopped by the addition of fetal calf serum (FCS) to the solution, and a single-cell suspension was then obtained by mechanical dissociation, which consisted in cells trituration in a DMEM (D7777, Sigma-Aldrich) medium (supplemented with 44 mm NaHCO3, and 10 ml/L antibiotic/antimycotic solution) containing 10% FCS. The cells were seeded at an average density of 6×10^4 cells/cm^2 in poly-D-lysine-coated 96, 12 or 6-well culture plates, depending on their use, and incubated at 37° C. in a humidified atmosphere containing 5% CO2/95% air. Culture medium was renewed twice per week. Cells were stimulated and harvested between DIV14 and DIV17, when confluence and cell growth were optimal.
Secretion of L-lactate was determined in the extracellular medium of 96-well plated astrocytes after 90 min stimulation (at 37° C., in 5% CO2/95% air conditions) with the drug of interest. The stimulation medium was composed of D5030 medium (completed with D-glucose 5 mM and 44 mM sodium bicarbonate) for 90 min in concentrations ranging from 0 to 100 μM.
Briefly, 200 μl of a Glycine (Sigma)-Semicarbazide (Acros) 0.2M pH 10 buffer containing 3 mM NAD (Roche) and LDH 14 U/ml (Roche) was added to each well of a 96-well plate containing 30 μl aliquots complemented with 20 μl fresh complete D5030 medium. Samples were incubated at 37° C. for 1 h. After samples cooled down at room temperature, the fluorescence intensity (340 nm excitation/450 nm emission) that represents the amount of NADH produced was measured, and lactate concentration values were determined from a standard curve of L-lactate.
Statistical analysis consisted in ANOVA followed by Fisher LSD post-hoc test for pair-wise comparisons.
Levels of lactate secreted by astrocytes were measured in the extracellular medium at 90 min after stimulation with hits (molecules) from the CDC54K library.

[2] = test system: primary astrocytes; assay: High throughput screening for lactate secretion: acidification of extracellular medium (SNARF5); type: cell-based, mouse; conditions: Mus musculus, Astrocyte, 1.5 h; Appendix I; primary screening, 10 uM, 90 min; relative to positive control; read-out: Score
Method: as §1
Secretion of lactate in a high-throughput screening (HTS) fashion was measured indirectly through the acidification of extracellular medium. To this end, primary astrocytes grown in 96-well plates for 17 days were stimulated with the compounds as listed herein.
After washing the cells twice with stimulation medium (DMEM (D5030, Sigma), 3 mM NaHCO3 and 5 mM Glucose) at 37° C., cells were stimulated with the compounds at a final concentration of 10 uM (1% DMSO final) in 50 ul per well of stimulation medium supplemented with 10 uM of the extracellular pH sensor SNARF-5F %-(AND-6)-CAR (Life Technologies Corporation). Each compound was tested in two different plates for duplicates.
After 90 min stimulation, fluorescence was read at exc. (excitation) 480 nm/emm. (emission) 580 nm and at exc 480 nm/emm. 630 nm. The ratio of fluorescence between 630 nm and 580 emission values, which represents extracellular pH, was calculated.
In each plate, 8 wells were used for negative controls (DMSO) and 8 wells were used for positive controls (CCCP 2 uM in DMSO). Z prime values were calculated for each of the plates tested and values <0 were discarded.
The average and SD of compounds' values tested in duplicates were calculated, and compound was noted as HIT when the difference between compound's average and negative control's average was greater than three times the sum of compound's SD and negative controls' SD. Only scores greater than 40% were considered as lead hits for the CDC54K library; for the remaining libraries, all hits were considered. Scores are calculated as the % of activity compared to the positive control in each plate (which is 100%).
Primary screening hits were cherry picked on new plates and confirmed for SNARF5 effect, after having discarded those compounds that are fluorescent (exc. 480 nm/emm. 580 nm or 630 nm) before stimulation. Extracellular medium was next analyzed for extracellular lactate quantification for secondary screening.
Identification of lactate-enhancing drugs with high throughput screening (HTS) experiments on astrocytes primary cultures using extracellular pH dye (SNARF5F 5-(and 6)-carboxylic acid) for 90 min. The procedure is described in Material and Methods (2. Cell culture, 2.1. HTS for lactate secretion and 2.2. Extracellular lactate quantification).
The procedure was performed as follows: • Primary screening: acidification of the extracellular medium • Primary screening confirmation: acidification of the extracellular medium, removal of compounds with fluorescent activity at exc. 480 nm/emm. 580 nm or 630 nm. • Secondary screening: dosage of extracellular lactate

Row | SMILES | EC50 [1] | Emax at 10 µM [2]
1 | CC(=O)N1CC(C)(C)c2cc(S(=O)(=O)NCc3ccc(C)cc3)ccc21 [L302-0069] | 6.27 µM | 
2 | CC(=O)N1CC(C)(C)c2cc(S(=O)(=O)Nc3ccc(F)cc3C)ccc21 [L302-0181] | 5.05 µM | 
3 | Cn1c(=O)c(N2CCC(NC(=O)Nc3cccc(Cl)c3)CC2)nc2ccccc21 [L932-0267] | 4.64 µM | 
4 | CN(C)c1ccc2ncnc(N3CCN(C(=O)c4ccc(Cl)cc4)CC3)c2c1 [M381-0730] | 3.19 µM | 
5 | CCc1ccc(NC(=O)Cc2cn(C)c3ncccc23)cc1 [M508-0370] | 4.58 µM | 
6 | CCc1ccc(NS(=O)(=O)c2c(C)c(-c3nnc(C4CC4)o3)n(C)c2C)cc1 [M950-1515] | 4.06 µM | 
7 | CCCCN1C(=O)C(C)(C(=O)Nc2ccc(OCC)cc2)Oc2cccnc21 (stereo not drawn) [P621-1364] | 5.86 µM | 
8 | CCOc1ccc(C2(O)C(C)[N+]3=C(CCC3)N2c2ccc(OC)cc2)cc1 (stereo not drawn) [T0500-6629] | 2.61 µM | 
9 | Cc1nc2ccccc2n1CCOc1ccc(Br)cc1 [T0505-4087] | 7.07 µM | 
10 | c1ccc(-c2c[nH]c3ncnc(NCCN4CCOCC4)c23)cc1 [T0513-0213] | 3.99 µM | 
11 | CC1(C)Cc2cccc(OCC(O)CN3CCc4ccccc4C3)c2O1 (stereo not drawn) [T0515-1783] | 5.39 µM | 
12 | N#Cc1cc(C(=O)c2cc(F)ccc2O)cn(-c2ccc(F)c(Cl)c2)c1=O [T0516-6894] | 8.21 µM | 
13 | Cc1sc2nc(CSc3nc4ccccc4c(=O)n3C)[nH]c(=O)c2c1C [T0517-2783] | 3.84 µM | 
14 | COc1ccc(NS(=O)(=O)c2cccc(NC(=O)c3cccs3)c2)cc1 [T0517-4117] | 5.43 µM | 
15 | CCN(CC)C(=O)c1nc(CNC(=O)c2ccc3ccccc3n2)oc1C [T993-1787] | 7.99 µM | 
16 | O=c1[nH]nc(OCCOc2ccc(Br)cc2)n1C1CC1 [T533260] | 6.84 µM | 
17 | COc1ccc(NS(=O)(=O)c2cccc(NC(=O)c3ccccc3)c2)cc1 [T5274959] | 4.12 µM | 
18 | O=S(=O)(Nc1ccc(S(=O)(=O)C(F)F)cc1)c1ccc(Cl)cc1 [T5311200] | 6.02 µM | 
19 | CCOc1ccc(CN(C)CC(=O)Nc2cccc(C)c2)cc1OC [T5318833] | 5.45 µM | 
20 | COc1ccc(NS(=O)(=O)c2ccc(NC(=O)C3CCCO3)cc2)cc1 (stereo not drawn) [T5329723] | 4.61 µM | 
21 | CN1c2ccccc2C(=O)NC1c1ccc(Cl)c(Cl)c1 (stereo not drawn) [T5389517] | 5.74 µM | 

Row | SMILES | EC50 [1] | Emax at 10 µM [2]
22 | CN(C)S(=O)(=O)c1cccc(C(=O)Nc2ccc(Oc3ccccc3)cc2)c1 [T5393500] | 3.43 µM | 
23 | CCC(C)NS(=O)(=O)c1ccc(Oc2ccc(C)cc2)cc1 (stereo not drawn) [T5400234] | 4.64 µM | 
24 | Cc1ccc(OCCn2c(C)nc3ccccc32)cc1 [T5444083] | 4.59 µM | 
25 | O=C(Nc1ccc(F)c(F)c1)c1ccc(Cl)c(S(=O)(=O)N2CCCC2)c1 [T5450239] | 4.42 µM | 
26 | CCN(CC)S(=O)(=O)c1ccc(S(=O)(=O)Nc2ccc(C)cc2Cl)cc1 [T5453923] | 5.36 µM | 
27 | CCN1C(=O)c2cccc3c(S(=O)(=O)Nc4ccc(OC)cc4OC)ccc1c23 [T5477696] | 5.1 µM | 
28 | Cc1c(O)ccc2c(CN(C)CC3COc4ccccc4O3)cc(=O)oc12 (stereo not drawn) [T5494352] | 5.02 µM | 
29 | CCn1c(=O)c(C)nc2cc(C(=O)N(Cc3ccc(F)cc3)C3CC3)ccc21 [T5586091] | 5.36 µM | 
30 | Cc1nc2ccc(NC(=O)c3ccc4c(c3)CC(C)N4S(C)(=O)=O)cc2s1 (stereo not drawn) [T5606387] | 4.61 µM | 
31 | CC(Nc1ncnc2sccc12)c1ccccn1 (stereo not drawn) [T5672380] | 3.91 µM | 76.5%
32 | N#Cc1ccc(S(=O)(=O)Nc2ccccc2C(=O)NCc2ccccc2)cc1 [T5673322] | 7.42 µM | 
33 | CCCC(=O)Nc1nc(-c2ccc3c(c2)CCO3)cs1 [T5691896] | 5.21 µM | 
34 | Cc1ccc(-c2csc(NC(=O)c3ccncc3)n2)cc1[N+](=O)O [T5694329] | 1.59 µM | 
35 | CC(=O)c1c(C)[nH]c(C(=O)N(C)Cc2ccc(C)cc2C)c1C [T5705522] | 2.53 µM | 
36 | CC(=O)N1CCc2cc(S(=O)(=O)NCC(C)c3ccccc3)ccc21 (stereo not drawn) [T5707230] | 4.88 µM | 
37 | COc1ccc(C(C)NC(=O)c2cc(=O)c3ccccc3o2)cc1F (stereo not drawn) [T5710343] | 6.31 µM | 
38 | CCc1ccccc1NC(=O)CN(C)c1ncnc2c1oc1ccccc12 [T5712071] | 1.14 µM | 
39 | Cc1sc2nc(CSc3nc4ccccc4[nH]3)nc(N)c2c1C [T5719257] | 2.85 µM | 
40 | Cc1ccc(S(=O)(=O)Nc2ccc(F)c(F)c2F)cc1[N+](=O)[O-] [T5729557] | 5.69 µM | 
41 | CCc1ccc(S(=O)(=O)Nc2c(C)nn(C)c2C)cc1 [T5753165] | 6.41 µM | 
42 | COc1ccccc1NC(=O)CO/N=C(/N)c1cccc(C(F)(F)F)c1 [T5770640] | 4.86 µM | 

Row | SMILES | EC50 [1] | Emax at 10 µM [2]
43 | COc1cc(C)c(NC(=O)Cc2ccc(Cl)c(Cl)c2)cc1OC [T5783794] | 6.11 µM | 
44 | c1nc(NCc2ccc3c(c2)OCO3)c2sccc2n1 [T5787526] | 3.89 µM | 
45 | CC(=O)Nc1cccc(NC(=O)CSc2nc(C)c(C)n2C2CCCC2)c1 [T5788339] | 3.9 µM | 
46 | CCCCn1c(CN(C)Cc2ccccc2)nc2c1c(=O)n(C)c(=O)n2C [T5788545] | 3.59 µM | 
47 | c1ccc(CN2CCOCC2)c(CNc2ncnc3ccsc23)c1 [T5790476] | 3.98 µM | 
48 | CC(=O)c1c(C)[nH]c(C(=O)C(C)N(C)Cc2ccc3c(c2)OCO3)c1C (stereo not drawn) [T5798761] | 4.01 µM | 
49 | COc1cccc(C(CNc2nc(C(F)(F)F)nc3ccccc23)N(C)C)c1 (stereo not drawn) [T5800607] | 5.87 µM | 
50 | Cn1nc(C(=O)Nc2ccc(Oc3ccccc3Cl)cc2)ccc1=O [T5813085] | 4.1 µM | 
51 | c1ccc(Cc2ccc(OCCn3ccnc3)cc2)cc1 [T5821723] | 4.29 µM | 
52 | CC(C)(C)NS(=O)(=O)c1cccc(C(=O)Nc2ccncc2)c1 [T5827594] | 5.02 µM | 
53 | COc1ccc(-c2csc(N3C(=O)CC4CS(=O)(=O)CC43)n2)cc1 (stereo not drawn) [T5832764] | 4.02 µM | 
54 | O=C(CN1CCCC1c1ccc2c(c1)OCCCO2)Nc1cc(F)cc(F)c1 (stereo not drawn) [T5993799] | 8.81 µM | 
55 | Cc1cccc(NC(=O)c2ccc(S(=O)(=O)Nc3ccccc3)cc2)n1 [T6125251] | 4.56 µM | 
56 | O=S(=O)(Nc1ccc(Cl)cc1)c1ccc(F)c(Cl)c1 [T6947848] | 5.5 µM | 
57 | O=C(Nc1ccc(S(=O)(=O)NCC2CCCO2)cc1)c1ccccc1 (stereo not drawn) [Y031-0361] | 8.23 µM | 
58 | C1CCCC(NC2=NCCCNC23CCCCC3)CC1 [Z076-0028] | 8.01 µM | 
59 | Cc1nc2ncnn2c(NC2CCCCCC2)c1C [Z606-8287] | 4.29 µM | 
60 | Cc1nc2ncnn2c(NCc2ccco2)c1C [Z606-8298] | 4.89 µM | 
61 | CCc1c(C)nc2ncnn2c1NC1CCCCCC1 [Z606-8351] | 5 µM | 
62 | CCc1c(C)nc2ncnn2c1NC1CCCCC1 [Z606-8352] | 4.11 µM | 
